Results on 24 molecules are retold here after patent US6730792B2, “β3 adrenergic agonists” (Eli Lilly and Company, priority 2000, dated 2004).

A word on the Emax: it is the maximal effect, on the per cent scale that the assay sets.

The target in this test is T1, human β3 adrenergic receptor (Homo sapiens, UniProt P13945).
T1 construct: expressed in transfected cells; host or cells: DXB-11 Chinese hamster ovary (CHO) cell line, stably transfected (phd expression vector)
As to the kind of experiment: whole cell receptor coupled c-AMP assay, human β3 receptor in CHO cells (EC50, Emax relative to isoproterenol). The test is classed as cell-based. The settings on record: % intrinsic activity relative to isoproterenol maximal response, c-AMP in transfected CHO cells; for Emax (%) ± SEM: average of at least 3 runs; for Emax: SEM in brackets. The method in brief: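 Stably transfected DXB-11 CHO cells (20,000/well) were exposed to compound for 20 min at 37 °C in HBSS/HEPES buffer with 1 mM IBMX, pH 7.4. cAMP was measured by SPA. EC50 came from a four-parameter logistic fit, and Emax is the maximal response as a percentage of isoproterenol's.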

T1 sequence (P13945 whole entry): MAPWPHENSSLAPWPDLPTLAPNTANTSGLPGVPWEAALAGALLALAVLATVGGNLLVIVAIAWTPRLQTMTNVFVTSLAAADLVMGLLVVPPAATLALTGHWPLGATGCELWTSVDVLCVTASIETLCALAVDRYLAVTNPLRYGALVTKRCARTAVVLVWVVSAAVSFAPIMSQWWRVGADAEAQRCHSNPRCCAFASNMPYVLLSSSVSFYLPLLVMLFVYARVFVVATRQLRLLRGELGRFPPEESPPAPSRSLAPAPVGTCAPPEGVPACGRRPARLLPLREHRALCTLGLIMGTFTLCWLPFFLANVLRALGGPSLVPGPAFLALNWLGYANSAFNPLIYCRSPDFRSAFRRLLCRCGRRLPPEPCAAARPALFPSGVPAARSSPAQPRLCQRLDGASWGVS

On to `CC(=O)c1ccc(-c2ccccc2OC[C@@H](O)CNC(C)(C)Cc2ccc(Oc3ncccc3C#N)cc2)s1.O=C(O)C(F)(F)F` [Example 415], for which the “Emax (%) ± SEM” value is given as 80.6 ± 5.7%.

For `CC(C)(Cc1ccc(Oc2ncccc2C#N)cc1)NC[C@H](O)COc1ccccc1-c1ccco1.Cl` [Example 416], the “Emax (%) ± SEM” value is 68.9 ± 6.7%.

For `Cc1ccc(-c2ccccc2OC[C@@H](O)CNC(C)(C)Cc2ccc(Oc3ncccc3C(N)=O)cc2)s1.Cl` [Example 417], the “Emax (%) ± SEM” value stood at 79.3 ± 2.4%.

Turning to `CC(C)(Cc1ccc(Oc2ncccc2C(N)=O)cc1)NC[C@H](O)COc1ccccc1-c1ccc(Cl)s1.Cl` [Example 418], the “Emax (%) ± SEM” value amounted to 74.4 ± 6.5%.

For the molecule `CC(=O)c1ccc(-c2ccccc2OC[C@@H](O)CNC(C)(C)Cc2ccc(Oc3ncccc3C(N)=O)cc2)s1.O=C(O)C(F)(F)F` [Example 419], the “Emax (%) ± SEM” value was 87.5 ± 1.8%.

Turning to `CC(C)(Cc1ccc(Oc2ncccc2C(N)=O)cc1)NC[C@H](O)COc1ccccc1-c1ccco1.Cl` [Example 420], the “Emax (%) ± SEM” value came out at 78.9 ± 2.3%.

Take `CC(C)(Cc1ccc(Oc2cccnc2C#N)cc1)NC[C@H](O)COc1ccccc1-c1ccsc1.Cl` [Example 421]: the “Emax (%) ± SEM” value turned out to be 53.4 ± 6.9%.

Consider `Cc1ccc(-c2ccccc2OC[C@@H](O)CNC(C)(C)Cc2ccc(Oc3cccnc3C#N)cc2)s1.Cl` [Example 422], for which the “Emax (%) ± SEM” value came to 60.1 ± 8.2%.

Regarding `CC(=O)c1ccc(-c2ccccc2OC[C@@H](O)CNC(C)(C)Cc2ccc(Oc3cccnc3C#N)cc2)s1.Cl` [Example 424], the “Emax (%) ± SEM” value was found to be 71.2 ± 7.9%.

On to `CC(C)(Cc1ccc(Oc2cccnc2C#N)cc1)NC[C@H](O)COc1ccccc1-c1ccco1.Cl` [Example 425], for which the “Emax (%) ± SEM” value was found to be 67.1 ± 3.0%.

For the molecule `CC(C)(Cc1ccc(Oc2ccc(C#N)cn2)cc1)NC[C@H](O)COc1c(F)cccc1-c1ccsc1.Cl` [Example 426], the “Emax (%) ± SEM” value stood at 61.0 ± 7.1%.

`Cc1ccc(-c2cccc(F)c2OC[C@@H](O)CNC(C)(C)Cc2ccc(Oc3ccc(C#N)cn3)cc2)s1.Cl` [Example 427]: the “Emax (%) ± SEM” value is listed as 72.4 ± 6.9%.

`CC(C)(Cc1ccc(Oc2ccc(C#N)cn2)cc1)NC[C@H](O)COc1c(F)cccc1-c1ccc(Cl)s1.Cl` [Example 428]: the “Emax (%) ± SEM” value is given as 75.5 ± 6.9%.

As for `CC(=O)c1ccc(-c2cccc(F)c2OC[C@@H](O)CNC(C)(C)Cc2ccc(Oc3ccc(C#N)cn3)cc2)s1.O=C(O)C(F)(F)F` [Example 429], the “Emax (%) ± SEM” value is given as 84.7 ± 12.3%.

Regarding `CC(C)(Cc1ccc(Oc2ccc(C#N)cn2)cc1)NC[C@H](O)COc1c(F)cccc1-c1ccco1.Cl` [Example 430], the “Emax (%) ± SEM” value is listed as 77.4 ± 9.0%.

Regarding `CC(C)(Cc1ccc(Oc2ncccc2C#N)cc1)NC[C@H](O)COc1c(F)cccc1-c1ccsc1.Cl` [Example 436], the “Emax (%) ± SEM” value came out at 57.5 ± 12.0%.

On to `Cc1ccc(-c2cccc(F)c2OC[C@@H](O)CNC(C)(C)Cc2ccc(Oc3ncccc3C#N)cc2)s1.Cl` [Example 437], for which the “Emax (%) ± SEM” value is given as 72.0 ± 10.5%.

Take `CC(C)(Cc1ccc(Oc2ncccc2C#N)cc1)NC[C@H](O)COc1c(F)cccc1-c1ccc(Cl)s1.Cl` [Example 438]: the “Emax (%) ± SEM” value was 64.3 ± 12.4%.

With `CC(=O)c1ccc(-c2cccc(F)c2OC[C@@H](O)CNC(C)(C)Cc2ccc(Oc3ncccc3C#N)cc2)s1.O=C(O)C(F)(F)F` [Example 439], the “Emax (%) ± SEM” value is on record as 75.0 ± 9.6%.

Consider `CC(C)(Cc1ccc(Oc2ncccc2C#N)cc1)NC[C@H](O)COc1c(F)cccc1-c1ccco1.Cl` [Example 440], for which the “Emax (%) ± SEM” value worked out at 73.4 ± 4.4%.

As to `CC(C)(Cc1ccc(Oc2ncccc2C(N)=O)cc1)NC[C@H](O)COc1ccccc1-c1ccsc1.Cl` [Example 446], the “Emax (%) ± SEM” value is 64.0 ± 6.0%.

`CC(C)(Cc1ccc(Oc2cccnc2C(N)=O)cc1)NC[C@H](O)COc1ccccc1-c1ccc(C(=O)O)s1` [Example 448]: the Emax is 79.9%.

The molecule `CC(C)(Cc1ccc(Oc2ncccc2C(N)=O)cc1)NC[C@H](O)COc1ccccc1-c1ccc(C(=O)O)s1` [Example 449] displayed an Emax of 74.2%.

`CC(C)(Cc1ccc(Oc2ncccc2C(N)=O)cc1)NC[C@H](O)COc1ccccc1-c1ccc(C(N)=O)s1` [Example 450]: the maximal effect (Emax) stood at 67.4%.
